Measurements as given in patent US7320990B2, “Crystalline form of a biphenyl compound” (Theravance, Inc., priority 2004, dated 2008).

How the values were obtained:
[1] = system: human β1, β2 or β3 adrenergic receptors; test: Whole-cell cAMP Flashplate assay in CHO cell lines heterologously expressing human β adrenergic receptors; format: cell-based; conditions: CHO-K1 cells; receptor subtype not named in the result sentence; read-out: EC50 values (β receptor agonist potency, cAMP)
Protocol: Test compounds (10 mM in DMSO) were diluted into PBS containing 0.1% BSA in Beckman Biomek-2000 and tested at 11 different concentrations ranging from 100 μM to 1 pM.

[2] = system: ACh-induced bronchoconstriction; test: Bronchoprotection in guinea pig model of acetylcholine-induced bronchoconstriction; format: in vivo; conditions: inhalation, 1.5 hours post-dose
Protocol: (§1) Groups of 6 male guinea pigs (Duncan-Hartley (HsdPoc:DH) Harlan, Madison, Wis.) weighing between 250 and 350 g were individually identified by cage cards. Throughout the study, animals were allowed access to food and water ad libitum.
(§2) Forty-five minutes prior to the start of the pulmonary evaluation, each guinea pig was anesthetized with an intramuscular injection of ketamine (43.75 mg/kg), xylazine (3.50 mg/kg) and acepromazine (1.05 mg/kg). After the surgical site was shaved and cleaned with 70% alcohol, a 2-3 cm midline incision of the ventral aspect of the neck was made. […] The depth of anesthesia was monitored and adjusted if the animal responds to pinching of its paw or if the respiration rate was greater than 100 breaths/minute. […]
(§3) Once it was determined that baseline values were within the range of 0.3-0.9 mL/cm H2O for compliance and within the range of 0.1-0.199 cm H2O/mL per second for resistance, the pulmonary evaluation was initiated. […]
(§4) Starting this program initiated the experimental protocol and data collection. The changes in […] over time that occur within the plethysmograph with each breath were measured via a Buxco pressure transducer. By integrating this signal over time, a measurement of flow was calculated for each breath. […]

[3] = system: His-induced bronchoconstriction; test: Bronchoprotection in guinea pig model of histamine-induced bronchoconstriction; format: in vivo; conditions: inhalation, 1.5 hours post-dose
Protocol: as §1, §2, §3, §4

[4] = Dynamic moisture sorption assessment (DMS); format: physicochemical; conditions: for deliquescence: exposed to atmosphere moisture
Protocol: Approximately 10 mg of sample was used in the microbalance and the sample was run as received. The humidity was set at ambient condition on the day the analysis began. A typical DMSG analysis consisted of three scans: ambient to 2% relative humidity (RH), 2% RH to 90% RH, 90% RH to 5% RH. The scan rate was 5% RH/step. The mass was measured every two minutes using an equilibrium window of 5 points within 0.01% of the initial sample weight. The RH was changed to the next value (+/−5% RH) when the mass of the sample was stable to within 0.01% for 5 consecutive points.

[5] = Thermal analysis (DSC and TGA); format: physicochemical
Protocol: Differential scanning calorimetry (DSC) was performed using a TA Instruments Model Q-10 module with a Thermal Analyst controller. Data were collected and analyzed using TA Instruments Thermal Solutions software. A sample of about 1 mg was accurately weighed into an aluminum pan with lid. The sample was evaluated using a linear heating ramp of 5° C./min from ambient temperature to approximately 300° C. The DSC cell was purged with dry nitrogen during use.
Thermogravimetric analysis (TGA) was performed using a TA Instruments Model Q-50 module equipped with Hi-Resolution capability. Data were collected and analyzed using TA Instruments Thermal Solutions software. A sample weighing about 10 mg was placed onto a platinum pan and scanned with a high resolution-heating rate from ambient temperature to 300° C. The balance and furnace chambers were purged with nitrogen flows during use.

[6] = listed as crystalline naphthalene-1,5-disulfonic acid salt of the compound of formula I
[7] = listed as naphthalene-1,5-disulfonic acid salt of the present invention

Row | EC50 [1] | Molecule | ID50 for ACh-induced bronchoconstriction [2] | ID50 for His-induced bronchoconstriction [3] | moisture sorption/desorption profile [4] | deliquescence [4, 6] | deliquescence [4, 7] | weight gain ([4]; humidity range from 2% RH up to 90% RH) | weight gain ([4]; humidity range of 40% RH to 75% RH) | hygroscopicity (weight gain when exposed to atmospheric moisture) [4, 6] | hygroscopicity (weight gain when exposed to atmospheric moisture) [4, 7] | weight loss (TGA) ([5]; from room temperature to 150° C.) | temperature below which no thermal decomposition occurs (DSC) ([5]; heating ramp of 5° C./min)
1 | < 10 nM | O=C(Nc1ccccc1-c1ccccc1)OC1CCN(CCCCCCCCCNC[C@H](O)c2ccc(O)c3[nH]c(=O)ccc23)CC1 [compound of formula I, biphenyl-2-ylcarbamic acid 1-{9-[(R)-2-hydroxy-2-(8-hydroxy-2-oxo-1,2-dihydro-quinolin-5-yl)ethylamino]nonyl}piperidin-4-yl ester] | less than 100 μg/mL | less than 100 μg/mL |  |  |  |  |  |  |  |  | 
2 |  | Biphenyl-2-ylcarbamic Acid 1-{9-[(R)-2-Hydroxy-2-(8-Hydroxy-2-oxo-1,2-dihydroquinolin-5-yl)ethylamino]nonyl}piperidin-4-yl Ester Naphthalene-1,5-disulfonic Acid Salt [Example 3] |  |  | reversible | not to be deliquescent | not deliquescent | 3.7% | less than 1.5% | less than 5% | < 5% | about 1.8% | ≥ 200 °C
